Reference: patent publication US8183262B2, “Pyridine derivatives as mGluR2 antagonists” (Hoffmann-La Roche Inc., priority 2007, dated 2012)

| melting point | Structure (SMILES) |
| --- | --- |
| 239 °C | NS(=O)(=O)c1cccc(-c2cn(-c3nc(-c4ccc(Cl)c(Cl)c4)cc(C(F)(F)F)n3)cn2)c1 [Example 215, 3-{1-[4-(3,4-Dichloro-phenyl)-6-trifluoromethyl-pyrimidin-2-yl]-1H-imidazol-4-yl}-benzenesulfonamide] |
| 290 °C | Cc1cc(-c2cc(C(F)(F)F)nc(-n3cnc(-c4ccc(N)nc4)c3)n2)ccc1C(F)(F)F [Example 120, 5-{1-[4-(3-Methyl-4-trifluoromethyl-phenyl)-6-trifluoromethyl-pyrimidin-2-yl]-1H-imidazol-4-yl}-pyridin-2-ylamine] |
| 228.5 °C | NS(=O)(=O)c1ccc(-c2cccc(-c3nc(-c4ccc(F)cc4)cc(C(F)(F)F)n3)c2)s1 [Example 395, 5-{3-[4-(4-Fluoro-phenyl)-6-trifluoromethyl-pyrimidin-2-yl]-phenyl}-thiophene-2-sulfonic acid amide] |
| 237 °C | NS(=O)(=O)c1cccc(-c2cc(-c3nc(-c4ccc(C(F)(F)F)cc4)cc(C(F)(F)F)n3)ccn2)c1 [Example 158, 3-{4-[4-Trifluoromethyl-6-(4-trifluoromethyl-phenyl)-pyrimidin-2-yl]-pyridin-2-yl}-benzenesulfonamide] |
| 286.5 °C | Cc1nc(-c2cnc(N)nc2)cn1-c1nc(-c2ccc(C(F)(F)F)cc2)cc(C(F)(F)F)n1 [Example 143, 5-{2-Methyl-1-[4-trifluoromethyl-6-(4-trifluoromethyl-phenyl)-pyrimidin-2-yl]-1H-imidazol-4-yl}-pyrimidin-2-ylamine] |
| 302 °C | NS(=O)(=O)c1ccc(-c2noc(-c3nc(-c4ccc(C(F)(F)F)cc4)cc(C(F)(F)F)n3)n2)cc1 [Example 15, 4-{5-[4-Trifluoromethyl-6-(4-trifluoromethyl-phenyl)-pyrimidin-2-yl]-[1,2,4]oxadiazol-3-yl}-benzenesulfonamide] |
| 216.5 °C | Cc1cc(-c2ccc(C(F)(F)F)cc2)nc(-c2nc(-c3ccc(N)nc3)no2)n1 [Example 127, 5-{5-[4-Methyl-6-(4-trifluoromethyl-phenyl)-pyrimidin-2-yl]-[1,2,4]oxadiazol-3-yl}-pyridin-2-ylamine] |
| 234 °C | O=S(=O)(c1cccc(-c2cc(-c3nc(-c4ccc(C(F)(F)F)cc4)cc(C(F)(F)F)n3)ccn2)c1)N1CCC(O)C1 (racemic) [Example 407, (RS)-1-(3-{4-[4-Trifluoromethyl-6-(4-trifluoromethyl-phenyl)-pyrimidin-2-yl]-pyridin-2-yl}-benzenesulfonyl)-pyrrolidin-3-ol] |
| 240.5 °C | Cc1cc(-c2ccc(C(F)(F)F)cc2)nc(-c2nc(-c3cccc(S(N)(=O)=O)c3)no2)n1 [Example 126, 3-{5-[4-Methyl-6-(4-trifluoromethyl-phenyl)-pyrimidin-2-yl]-[1,2,4]oxadiazol-3-yl}-benzenesulfonamide] |
| 250.5 °C | CCOc1cc(-c2cc(C(F)(F)F)nc(-c3nc(-c4ccc(S(N)(=O)=O)cc4)no3)n2)ccc1C(F)(F)F [Example 89, 4-{5-[4-(3-Ethoxy-4-trifluoromethyl-phenyl)-6-trifluoromethyl-pyrimidin-2-yl]-[1,2,4]oxadiazol-3-yl}-benzenesulfonamide] |
| 270 °C | Nc1ccc(-c2cn(-c3nc(-c4ccc(C(F)(F)F)cc4)cc(C(F)(F)F)n3)cn2)cc1 [Example 111, 4-{1-[4-Trifluoromethyl-6-(4-trifluoromethyl-phenyl)-pyrimidin-2-yl]-1H-imidazol-4-yl}-phenylamine] |
| > 266 °C | NS(=O)(=O)c1cccc(-c2cn(-c3cc(C(F)(F)F)cc(-c4ccc(C(F)(F)F)cc4)n3)cn2)c1 [Example 283, 3-{1-[4-Trifluoromethyl-6-(4-trifluoromethyl-phenyl)-pyridin-2-yl]-1H-imidazol-4-yl}-benzenesulfonamide] |
| 241.5 °C | NS(=O)(=O)c1cccc(-c2cn(-c3nc(-c4ccc(F)c(F)c4)cc(C(F)(F)F)n3)cn2)c1 [Example 396, 3-{1-[4-(3,4-Difluoro-phenyl)-6-trifluoromethyl-pyrimidin-2-yl]-1H-imidazol-4-yl}-benzenesulfonamide] |
| 260 °C | NS(=O)(=O)c1cccc(-c2cn(-c3nc(-c4ccc(F)cc4)cc(C(F)(F)F)n3)cn2)c1 [Example 387, 3-{1-[4-(4-Fluoro-phenyl)-6-trifluoromethyl-pyrimidin-2-yl]-1H-imidazol-4-yl}-benzenesulfonamide] |
| 216 °C | Cc1cc(-c2cc(C(F)(F)F)nc(-c3cccc(-c4ccc(S(N)(=O)=O)s4)c3)n2)ccc1C(F)(F)F [Example 207, 5-{3-[4-(3-Methyl-4-trifluoromethyl-phenyl)-6-trifluoromethyl-pyrimidin-2-yl]-phenyl}-thiophene-2-sulfonic acid amide] |
| 202 °C | NS(=O)(=O)c1cccc(-c2cccc(-c3nc(-c4ccc(Cl)cc4Cl)cc(C(F)(F)F)n3)c2)c1 [Example 410, 3′-[4-(2,4-Dichloro-phenyl)-6-trifluoromethyl-pyrimidin-2-yl]-biphenyl-3-sulfonic acid amide] |

The next lines start with the compound.

| Structure (SMILES) | melting point |
| --- | --- |
| Cc1cc(-c2ccc(C(F)(F)F)cc2)cc(-c2cccc(-c3cccc(S(=O)(=O)N4CCC(O)CC4)c3)n2)n1 [Example 427, 1-{3-[6′-Methyl-4′-(4-trifluoromethyl-phenyl)-[2,2′]bipyridinyl-6-yl]-benzenesulfonyl}-piperidin-4-ol] | 195 °C |
| Cc1cc(-c2ccc(Cl)cc2)nc(-n2cnc(-c3cccnc3)c2)n1 [Example 44, 4-(4-Chloro-phenyl)-6-methyl-2-(4-pyridin-3-yl-imidazol-1-yl)-pyrimidine] | 179 to 181 °C |
| Cc1cc(-c2ccc(C(F)(F)F)cc2)nc(-c2ccnc(-c3cccc(S(N)(=O)=O)c3)n2)c1 [Example 308, 3-{4-[4-Methyl-6-(4-trifluoromethyl-phenyl)-pyridin-2-yl]-pyrimidin-2-yl}-benzenesulfonamide] | > 250 °C |
| Cc1cc(-c2ccc(C(F)(F)F)cc2)cc(-c2cccc(-c3cccc(S(=O)(=O)NC(C)(C)CO)c3)n2)n1 [Example 363, N-(2-Hydroxy-1,1-dimethyl-ethyl)-3-[6′-methyl-4′-(4-trifluoromethyl-phenyl)-[2,2′]bipyridinyl-6-yl]-benzenesulfonamide] | 171 °C |
| FC(F)(F)c1cc(-c2ccc(Cl)cc2)nc(-n2cnc(-c3cccnc3)c2)n1 [Example 7, 4-(4-Chloro-phenyl)-2-(4-pyridin-3-yl-imidazol-1-yl)-6-trifluoromethyl-pyrimidine] | 228 °C |
| Nc1ccc(-c2cccc(-c3cc(-c4ccc(C(F)(F)F)cc4)cc(C(F)(F)F)n3)c2)cn1 [Example 232, 5-{3-[6-Trifluoromethyl-4-(4-trifluoromethyl-phenyl)-pyridin-2-yl]-phenyl}-pyridin-2-ylamine] | 166 °C |
| Cc1cc(-c2ccc(C(F)(F)F)cc2)cc(-c2cncc(-c3ccc(N)nc3)c2)n1 [Example 67, 6-Methyl-4-(4-trifluoromethyl-phenyl)-[2,3′;5′,3″]terpyridin-6″-ylamine] | 161 to 177 °C |
| Nc1ncc(-c2cc(-c3cc(-c4ccc(C(F)(F)F)cc4)cc(C4CC4)n3)ccn2)cn1 [Example 78, 5-[6-Cyclopropyl-4-(4-trifluoromethyl-phenyl)-[2,4′]bipyridinyl-2′-yl]-pyrimidin-2-ylamine] | 242 to 245 °C |
| Nc1ccc(-c2cccc(-c3nc(-c4ccc(C(F)(F)F)cc4)cc(C(F)F)n3)c2)cn1 [Example 41, 5-{3-[4-Difluoromethyl-6-(4-trifluoromethyl-phenyl)-pyrimidin-2-yl]-phenyl}-pyridin-2-ylamine] | 191 °C |
| CC(C)c1cc(-c2ccc(C(F)(F)F)cc2)nc(-n2cnc(-c3ccc(N)nc3)c2)n1 [Example 152, 5-{1-[4-Isopropyl-6-(4-trifluoromethyl-phenyl)-pyrimidin-2-yl]-1H-imidazol-4-yl}-pyridin-2-ylamine] | 274.5 °C |
| Cc1cc(-c2ccc(Cl)c(Cl)c2)nc(-c2ccnc(-c3cccc(S(N)(=O)=O)c3)c2)n1 [Example 194, 3-{4-[4-(3,4-Dichloro-phenyl)-6-methyl-pyrimidin-2-yl]-pyridin-2-yl}-benzenesulfonamide] | 202.5 °C |
| NS(=O)(=O)c1ccc(-c2cn(-c3nc(-c4ccc(Cl)cc4)cc(C(F)(F)F)n3)cn2)s1 [Example 171, 5-{1-[4-(4-Chloro-phenyl)-6-trifluoromethyl-pyrimidin-2-yl]-1H-imidazol-4-yl}-thiophene-2-sulfonic acid amide] | 284 °C |
| Cc1cc(-c2ccc(C(F)(F)F)cc2)cc(-c2ccnc(-c3cccc(S(=O)(=O)NC(C)(C)C)c3)c2)n1 [Example 287, N-tert-Butyl-3-[6-methyl-4-(4-trifluoromethyl-phenyl)-[2,4′]bipyridinyl-2′-yl]-benzenesulfonamide] | 189 °C |
| NS(=O)(=O)c1ccc(-c2cccc(-c3nc(-c4ccc(C(F)(F)F)cc4)cc(C(F)F)n3)c2)s1 [Example 459, 5-{3-[4-Difluoromethyl-6-(4-trifluoromethyl-phenyl)-pyrimidin-2-yl]-phenyl}-thiophene-2-sulfonic acid amide] | 240.5 °C |
| Cc1cc(-c2ccc(C(F)(F)F)cc2)cc(-c2nc(-c3ccc(N)nc3)cs2)n1 [Example 230, 5-{2-[6-Methyl-4-(4-trifluoromethyl-phenyl)-pyridin-2-yl]-thiazol-4-yl}-pyridin-2-ylamine] | 191 °C |
| Cc1cc(-c2ccc(Cl)c(Cl)c2)nc(-n2cnc(-c3cccc(S(C)(=O)=O)c3)c2)n1 [Example 214, 4-(3,4-Dichloro-phenyl)-2-[4-(3-methanesulfonyl-phenyl)-imidazol-1-yl]-6-methyl-pyrimidine] | 213 °C |
| Cc1nc(-c2cn(-c3cc(-c4ccc(C(F)(F)F)cc4)cc(C(F)(F)F)n3)cn2)sc1S(=O)(=O)NC(C)(C)C [Example 300, 4-Methyl-2-{1-[6-trifluoromethyl-4-(4-trifluoromethyl-phenyl)-pyridin-2-yl]-1H-imidazol-4-yl}-thiazole-5-sulfonic acid tert-butylamide] | 260 °C |
